Test results as given in ChEMBL document CHEMBL5543131, “Discovery of Highly Potent Solute Carrier 13 Member 5 (SLC13A5) Inhibitors for the Treatment of Hyperlipidemia” (J Med Chem, 2024).
The source made the active and inactive calls. The calls are words filed in the database; no cut-off is given here.

Assays:
AML12 [1] = assay: Effect on lipid accumulation in oleic and palmitic acid induced mouse AML12 cells assessed as decrease in total cholesterol level; type: functional, cell-based; details: dose 3-30 µM
AML12 [2] = assay: Effect on lipid accumulation in oleic and palmitic acid induced mouse AML12 cells assessed as decrease in triglyceride level at 3 to 30 uM; type: functional, cell-based; details: dose 3-30 µM
AML12 [3] = assay: Effect on lipid accumulation in oleic and palmitic acid induced mouse AML12 cells assessed as decrease in total cholesterol level at 3 to 30 uM; type: functional, cell-based; details: dose 3-30 µM
[4] = test system: O=C(O)CC(O)(CCc1ccc(-c2ccccc2)cc1)C(=O)O; assay: Binding affinity to SLC13A5 (unknown origin) assessed as Km; details: Homo sapiens
AML12 [5] = assay: Effect on lipid accumulation in oleic and palmitic acid induced mouse AML12 cells assessed as decrease in triglyceride level; type: functional, cell-based; details: dose 3-30 µM

Sequence of Na(+)/citrate cotransporter (Homo sapiens), Q86YT5 (Q86YT5 whole entry): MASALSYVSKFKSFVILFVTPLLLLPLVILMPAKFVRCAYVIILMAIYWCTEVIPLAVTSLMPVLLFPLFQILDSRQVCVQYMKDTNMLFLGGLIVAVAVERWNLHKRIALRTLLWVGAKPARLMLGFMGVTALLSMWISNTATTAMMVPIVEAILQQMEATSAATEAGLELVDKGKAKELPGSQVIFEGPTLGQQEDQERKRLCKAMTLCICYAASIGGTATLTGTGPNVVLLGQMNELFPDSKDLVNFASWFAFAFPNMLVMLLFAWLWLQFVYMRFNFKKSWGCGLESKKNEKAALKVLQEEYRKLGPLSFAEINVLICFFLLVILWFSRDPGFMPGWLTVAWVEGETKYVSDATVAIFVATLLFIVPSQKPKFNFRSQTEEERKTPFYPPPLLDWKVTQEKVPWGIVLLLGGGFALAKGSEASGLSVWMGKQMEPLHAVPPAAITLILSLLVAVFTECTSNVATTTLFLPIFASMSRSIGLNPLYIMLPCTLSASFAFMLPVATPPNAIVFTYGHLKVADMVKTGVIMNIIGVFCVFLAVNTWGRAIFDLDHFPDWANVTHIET

Compound | Activity (AML12 [1]) | Activity (AML12 [2]) | Activity (AML12 [3]) | Km [4] [µM] | Activity (AML12 [5])
CCn1nccc1-c1ccc(CCC(O)(CC(=O)O)C(=O)O)cc1 (stereo unspecified) | Dose-Dependent Effect | inactive |  |  | 
CC(C)(C)c1ccc(CC[C@@](O)(CC(=O)O)C(=O)O)cc1 |  | inactive | inactive |  | 
Na(+)/citrate cotransporter (Homo sapiens), Q86YT5 |  |  |  | 0.19 | 
O=C(O)CC(O)(CCc1ccc2ccccc2c1)C(=O)O (stereo unspecified) | Dose-Dependent Effect |  |  |  | Dose-Dependent Effect
O=C(O)CC(O)(CCc1nc2ccccc2s1)C(=O)O (stereo unspecified) | Dose-Dependent Effect | inactive |  |  | 
COc1ccccc1-c1ccc(CCC(O)(CC(=O)O)C(=O)O)cc1 (stereo unspecified) | Dose-Dependent Effect |  |  |  | Dose-Dependent Effect
